# Laboratory results reported in patent publication US9233979B2, “Compounds that are ERK inhibitors” (Merck Sharp & Dohme Corp., priority 2012, dated 2016).
# Target: phosphorylated active hERK2 enzyme (Homo sapiens (Human), UniProt P28482)
# Test: Active Human ERK2 (hERK2) Activity Assay (IMAP-FP)
# Format: biochemical
# Conditions: Table 5, 0.5 nM hERK2, 30 μM ATP, 10 point titration, read-out: AERK2 IC50
# Description: Assays Active Human ERK2 (hERK2) Activity Assay:
# Activated ERK2 activity was determined in an IMAP-FP assay (Molecular Devices). […] The final reaction in each well of 25 μL consists of 0.5 nM hERK2, 900 nM unlabeled peptide, 80 nM labeled-peptide, and 30 μM ATP. Phosphorylation reactions were allowed to proceed for 60 minutes and were immediately quenched by the addition of 60 μL IMAP detection beads (1:1000 dilutions) in IMAP binding buffer (Molecular Devices) with 24 mM NaCl. Plates were read on EnVision reader after 60 minutes binding equilibration using Fluorescence Polarization protocol (Perkin Elmer).
# Sequence of phosphorylated active hERK2 enzyme (P28482 whole entry): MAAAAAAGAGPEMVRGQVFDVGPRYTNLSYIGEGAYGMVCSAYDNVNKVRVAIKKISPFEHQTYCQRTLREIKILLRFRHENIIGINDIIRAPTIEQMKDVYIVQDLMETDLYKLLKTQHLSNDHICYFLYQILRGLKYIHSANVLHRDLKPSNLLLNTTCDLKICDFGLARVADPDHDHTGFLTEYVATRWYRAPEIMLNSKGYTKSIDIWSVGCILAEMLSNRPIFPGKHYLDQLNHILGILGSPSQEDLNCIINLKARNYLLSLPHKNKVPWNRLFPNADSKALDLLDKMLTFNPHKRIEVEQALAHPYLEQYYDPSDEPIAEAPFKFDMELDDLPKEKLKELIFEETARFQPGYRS
row,IC50 [nM],Structure (SMILES)
1,7.85,"CNc1n[nH]c2cc(NC(=O)N[C@H](C)c3ccc(F)cc3)ncc12 [Example 1, 1-[(1R)-1-(4-Fluorophenyl)ethyl]-3-[3-(methylamino)-1H-pyrazolo[4,3-c]pyridin-6-yl]urea]"
2,4.87,"CNc1n[nH]c2cc(NC(=O)N[C@H](C)c3ccccc3)ncc12 [Example 3, 1-[3-(methylamino)-1H-pyrazolo[4,3-c]pyridin-6-yl]-3-[(1R)-1-phenylethyl]urea]"
3,19.5,"CCNc1n[nH]c2cc(NC(=O)N[C@H](C)c3ccccn3)ncc12 [Example 4, 1-[3-(ethylamino)-1H-pyrazolo[4,3-c]pyridin-6-yl]-3-[(1R)-1-pyridin-2-ylethyl]urea]"
4,1,"CCNc1n[nH]c2cc(NC(=O)N[C@H](C)c3ccc(F)cc3)ncc12 [Example 5, 1-[3-(ethylamino)-1H-pyrazolo[4,3-c]pyridin-6-yl]-3-[(1R)-1-(4-fluorophenyl)ethyl]urea]"
5,2300,"COC[C@@H](NC(=O)Nc1cc2[nH]nc(N3CC(OC)C3)c2cn1)c1ccccc1 [Example 6, 1-[3-(3-methoxyazetidin-1-yl)-1H-pyrazolo[4,3-c]pyridin-6-yl]-3-[(1S)-2-methoxy-1-phenylethyl]urea]"
6,342,"COCCNC(=O)Nc1cc2[nH]nc(N3CC(OC)C3)c2cn1 [Example 7, 1-[3-(3-methoxyazetidin-1-yl)-1H-pyrazolo[4,3-c]pyridin-6-yl]-3-(2-methoxyethyl)urea]"
7,255,"COCCNC(=O)Nc1cc2[nH]nc(N3CCC3)c2cn1 [Example 8, 1-(3-azetidin-1-yl-1H-pyrazolo[4,3-c]pyridin-6-yl)-3-(2-methoxyethyl)urea]"
8,105,"COCCNC(=O)Nc1cc2[nH]nc(N3CCCC3)c2cn1 [Example 9, 1-(2-methoxyethyl)-3-(3-pyrrolidin-1-yl-1H-pyrazolo[4,3-c]pyridin-6-yl)urea]"
9,42.1,"COCCN(C)c1n[nH]c2cc(NC(=O)N[C@H](C)c3ccccc3)ncc12 [Example 10, 1-{3-[(2-methoxyethyl)(methyl)amino]-1H-pyrazolo[4,3-c]pyridin-6-yl}-3-[(1R)-1-phenylethyl]urea]"
10,30,"COC[C@@H](C)NC(=O)Nc1cc2[nH]nc(N3CCOCC3)c2cn1 [Example 11, 1-[(1R)-2-methoxy-1-methylethyl]-3-(3-morpholin-4-yl-1H-pyrazolo[4,3-c]pyridin-6-yl)urea]"
11,51.6,"COC[C@H](C)NC(=O)Nc1cc2[nH]nc(N3CCOCC3)c2cn1 [Example 12, 1-[(1S)-2-methoxy-1-methylethyl]-3-(3-morpholin-4-yl-1H-pyrazolo[4,3-c]pyridin-6-yl)urea]"
12,28,"C[C@@H](NC(=O)Nc1cc2[nH]nc(N3CCN(C)CC3)c2cn1)c1ccccc1 [Example 13, 1-[3-(4-methylpiperazin-1-yl)-1H-pyrazolo[4,3-c]pyridin-6-yl]-3-[(1R)-1-phenylethyl]urea]"
13,21.8,"COC[C@@H](NC(=O)Nc1cc2[nH]nc(N3CCN(C)CC3)c2cn1)c1ccccc1 [Example 14, 1-[(1S)-2-methoxy-1-phenylethyl]-3-[3-(4-methylpiperazin-1-yl)-1H-pyrazolo[4,3-c]pyridin-6-yl]urea]"
14,17.3,"C[C@@H](NC(=O)Nc1cc2[nH]nc(N(C)C)c2cn1)c1ccc(F)cc1 [Example 15, 1-[3-(dimethylamino)-1H-pyrazolo[4,3-c]pyridin-6-yl]-3-[(1R)-1-(4-fluorophenyl)ethyl]urea]"
15,20.6,"CO[C@H](C)CNC(=O)Nc1cc2[nH]nc(N3CCOCC3)c2cn1 [Example 16, 1-[(2R)-2-methoxypropyl]-3-(3-morpholin-4-yl-1H-pyrazolo[4,3-c]pyridin-6-yl)urea]"
16,11.8,"CO[C@@H](C)CNC(=O)Nc1cc2[nH]nc(N3CCOCC3)c2cn1 [Example 17, 1-[(2S)-2-methoxypropyl]-3-(3-morpholin-4-yl-1H-pyrazolo[4,3-c]pyridin-6-yl)urea]"
17,13.8,"C[C@@H](NC(=O)Nc1cc2[nH]nc(N(C)C)c2cn1)c1ccccc1 [Example 19, 1-[3-(dimethylamino)-1H-pyrazolo[4,3-c]pyridin-6-yl]-3-[(1R)-1-phenylethyl]urea]"
18,13.6,"COCCNC(=O)Nc1cc2[nH]nc(N3CCOCC3)c2cn1 [Example 20, 1-(2-methoxyethyl)-3-(3-morpholin-4-yl-1H-pyrazolo[4,3-c]pyridin-6-yl)urea]"
19,10.4,"CCN(CC)c1n[nH]c2cc(NC(=O)N[C@H](COC)c3ccccc3)ncc12 [Example 21, 1-[3-(diethylamino)-1H-pyrazolo[4,3-c]pyridin-6-yl]-3-[(1S)-2-methoxy-1-phenylethyl]urea]"

row,IC50 [nM],Structure (SMILES)
1,8.75,"COC1CN(c2n[nH]c3cc(NC(=O)N[C@H](C)c4ccccc4)ncc23)C1 [Example 22, 1-[3-(3-methoxyazetidin-1-yl)-1H-pyrazolo[4,3-c]pyridin-6-yl]-3-[(1R)-1-phenylethyl]urea]"
2,4.8,"COC[C@@H](NC(=O)Nc1cc2[nH]nc(N3CCC3)c2cn1)c1ccccc1 [Example 24, 1-(3-azetidin-1-yl-1H-pyrazolo[4,3-c]pyridin-6-yl)-3-[(1S)-2-methoxy-1-phenylethyl]urea]"
3,4.78,"C[C@@H](NC(=O)Nc1cc2[nH]nc(N3CCC3)c2cn1)c1ccccc1 [Example 25, 1-(3-azetidin-1-yl-1H-pyrazolo[4,3-c]pyridin-6-yl)-3-[(1R)-1-phenylethyl]urea]"
4,1.2,"COC[C@@H](NC(=O)Nc1cc2[nH]nc(N3CCOCC3C)c2cn1)c1ccccc1 (stereo partly drawn) [Example 27, 1-[(1S)-2-methoxy-1-phenylethyl]-3-[3-(3-methylmorpholin-4-yl)-1H-pyrazolo[4,3-c]pyridin-6-yl]urea]"
5,1,"COC[C@@H](NC(=O)Nc1cc2[nH]nc(N3CCCC3)c2cn1)c1ccccc1 [Example 28, 1-[(1S)-2-methoxy-1-phenylethyl]-3-(3-pyrrolidin-1-yl-1H-pyrazolo[4,3-c]pyridin-6-yl)urea]"
6,0.82,"C[C@@H](NC(=O)Nc1cc2[nH]nc(N3CCCC3)c2cn1)c1ccccc1 [Example 29, 1-[(1R)-1-phenylethyl]-3-(3-pyrrolidin-1-yl-1H-pyrazolo[4,3-c]pyridin-6-yl)urea]"
7,0.4,"COC[C@@H](NC(=O)Nc1cc2[nH]nc(N3CCOCC3)c2cn1)c1ccccc1 [Example 30, 1-[(1S)-2-methoxy-1-phenylethyl]-3-(3-morpholin-4-yl-1H-pyrazolo[4,3-c]pyridin-6-yl)urea]"
8,0.4,"C[C@@H](NC(=O)Nc1cc2[nH]nc(N3CCOCC3)c2cn1)c1ccc(F)cc1 [Example 31, 1-[(1R)-1-(4-fluorophenyl)ethyl]-3-(3-morpholin-4-yl-1H-pyrazolo[4,3-c]pyridin-6-yl)urea]"
9,0.37,"C[C@@H](NC(=O)Nc1cc2[nH]nc(N3CCOCC3)c2cn1)c1ccccc1 [Example 32, 1-(3-morpholin-4-yl-1H-pyrazolo[4,3-c]pyridin-6-yl)-3-[(1R)-1-phenylethyl]urea]"
10,13.9,"CCNc1n[nH]c2cc(NC(=O)N[C@H](C)c3ccccc3)nc(C)c12 [Example 38, 1-[3-(ethylamino)-4-methyl-1H-pyrazolo[4,3-c]pyridin-6-yl]-3-[(1R)-1-phenylethyl]urea]"
11,20.2,"CN1C[C@H](NC(=O)Nc2cc3[nH]nc(N4CCOCC4)c3cn2)[C@@H](c2ccccc2)C1 [Example 41, 1-[(3R,4S)-1-Methyl-4-phenylpyrrolidin-3-yl]-3-(3-morpholin-4-yl-1H-pyrazolo[4,3-c]pyridin-6-yl)urea]"
12,0.2,"CN1C[C@@H](NC(=O)Nc2cc3[nH]nc(N4CCOCC4)c3cn2)[C@H](c2ccccc2)C1 [Example 42, 1-[(3S,4R)-1-methyl-4-phenylpyrrolidin-3-yl]-3-(3-morpholin-4-yl-1H-pyrazolo[4,3-c]pyridin-6-yl)urea]"
13,2.81,"C[C@@H](NC(=O)Nc1cc2[nH]nc(N)c2cn1)c1ccc(F)cc1 [Example 44, 1-(3-amino-1H-pyrazolo[4,3-c]pyridin-6-yl)-3-[(1R)-1-(4-fluorophenyl)ethyl]urea]"
14,0.66,"CC(=O)Nc1n[nH]c2cc(NC(=O)N[C@H](C)c3ccccc3)ncc12 [Example 47, (R)—N-(6-(3-(1-Phenylethyl)ureido)-1H-pyrazolo[4,3-c]pyridin-3-yl)acetamide]"
15,321,"CCS(=O)(=O)Nc1n[nH]c2cc(NC(=O)N[C@H](C)c3ccccc3)ncc12 [Example 50, (R)—N-(6-(3-(1-Phenylethyl)ureido)-1H-pyrazolo[4,3-c]pyridin-3-yl)ethanesulfonamide]"
16,652,"C[C@@H](NC(=O)Nc1cc2[nH]nc(NS(C)(=O)=O)c2cn1)c1ccccc1 [Example 51, N-[6-({[(1R)-1-phenylethyl]carbamoyl}amino)-1H-pyrazolo[4,3-c]pyridin-3-yl]methanesulfonamide]"
17,914,"C[C@@H](NC(=O)Nc1cc2[nH]nc(NS(=O)(=O)C3CC3)c2cn1)c1ccccc1 [Example 52, N-[6-({[(1R)-1-phenylethyl]carbamoyl}amino)-1H-pyrazolo[4,3-c]pyridin-3-yl]cyclopropanesulfonamide]"
18,424,"C[C@@H](NC(=O)Nc1cc2[nH]nc(NS(=O)(=O)C3CCC3)c2cn1)c1ccccc1 [Example 53, N-[6-({[(1R)-1-phenylethyl]carbamoyl}amino)-1H-pyrazolo[4,3-c]pyridin-3-yl]cyclobutanesulfonamide]"
19,810,"COCCS(=O)(=O)Nc1n[nH]c2cc(NC(=O)N[C@H](C)c3ccccc3)ncc12 [Example 54, 2-methoxy-N-[6-({[(1R)-1-phenylethyl]carbamoyl}amino)-1H-pyrazolo[4,3-c]pyridin-3-yl]ethanesulfonamide]"

row,Structure (SMILES),IC50 [nM]
1,"CCNc1n[nH]c2cc(NC(=O)N[C@H](C)c3ccccc3)ncc12 [Example 2, (R)-1-(3-(Ethylamino)-1H-pyrazolo[4,3-c]pyridin-6-yl)-3-(1-phenylethyl)urea]",1.13
